Entries after “also recorded” stand apart in the source; their conditions may differ.
What was measured:
[1] = system: HIV-1IIIB; assay: Inhibition of retroviral replication in infected human T-cell lines (MT4, H9); type: cell-based; conditions: e.g., MT4 and H9, infected with HIV-1IIIB
Protocol: Several compounds of the present invention, such as 3-(alpha-ethylbenzyl)-6-(alpha-ethylphenethyl)-4-hydroxy-2H-pyran-2-one, were tested in known human cell lines, such as human T-cell lines, e.g., MT4 and H9, which were infected with HIV-1IIIB, and certain of these compounds were further tested in peripheral blood mononuclear cells (PBMC), which were infected with HIV-1JRCSF (a clinical isolate).

[2] = system: testosterone 5α-reductase; assay: In vitro testosterone 5α-reductase inhibitor assay; type: biochemical; conditions: at a dose of at least 0.1 mM; dog and rat prostates
Protocol: The following five (5) compounds of the present invention were tested in an in vitro testosterone 5α-reductase inhibitor assay: 3-(α-Ethylbenzyl)-6-(α-ethylphenethyl)-4-hydroxy-2H-pyran-2-one; 6-(1-Benzyl-propyl)-3-(cyclopropyl-phenyl-methyl)-4-hydroxy-pyran-2-one; 3-(α-Ethylbenzyl)-6-(α-ethylbenzyl)-4-hydroxy-2H-pyran-2-one; 3-(α-Ethylbenzyl)-6-phenethyl-4-hydroxy-2H-pyran-2-one; 4-Hydroxy-3-(1-phenylpropyl)-6-[1-[(tetrahydro-2H-pyran-3-yl)methyl]propyl]-2H-pyran-2-one. This assay is very similar to those described in the following references, except for the use of dog and rat prostates in place of human prostates: Proc. Natl. Acad. Sci. USA, Vol. 90: 5277-5281 (1993); J. Steroid. Biochem. Molec. Biol., Vol. 44, No. 2, pp. 121-131 (1993). All five (5) compounds had activity in this assay at a dose of at least 0.1 mM.

[3] = target: T1, HIV-1 protease (Human immunodeficiency virus type 1 group M subtype B, UniProt P04585); assay: In vitro HIV protease inhibitory assay (HIV Protease FITC Assay); type: biochemical
T1 construct: The protease (or proteinase), consisting of only 99 amino acids, is among the smallest enzymes known
Summary of the method: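 Percent inhibition was read as fluorescence after avidin-bead capture and filtration separated FITC cleavage product from biotinylated substrate. Enzyme and substrate reacted 1 h, RT, dark, at pH 5.5 (0.1 M sodium acetate, 1.0 M NaCl, 0.05% NP-40).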

[4] = Four week oral drug safety and toxicity study in beagle dogs (prostate size and weight); type: in vivo
Excerpt: Daily oral doses were divided into two (2) equal doses with at least seven (7) hours between the morning and afternoon dose. Parameters evaluated included twice daily clinical observations; daily evaluation of food and water consumption; twice weekly body weights; pretest and dosage day (dd) 15 or 16 and 24 or 25 electrocardiograms; pretest and dd 23 or 24 ophthalmology examinations; pretest and dd 1, 8, 14, 21 and 28 plasma drug levels; pretest and dd 8, 14, and 28 hemograms and serum chemistries; pretest and dd 14 and 28 urinalyses; terminal body weights, gross necropsy observations and absolute and relative organ weights; and histopathologic evaluation of organs and tissues.

[5] = male dogs, group 2, 50 mg/kg/day oral, 28 days, n=3
[6] = male dogs, group 3, 100 mg/kg/day oral, 28 days, n=3
[7] = male dogs, group 4, 200 mg/kg/day oral, 28 days, n=3
[8] = male dogs, group 5, 400 mg/kg/day oral, 28 days, n=3
[9] = repeat study, 400 mg/kg/day, 4 dogs
[10] = repeat study, male dogs, group 7, 400 mg/kg/day, n=4

## CCC(Cc1ccccc1)c1cc(O)c(C(CC)c2ccccc2)c(=O)o1 (stereo not drawn) [Example 13, 3-(α-ethylbenzyl)-6-(αethylphenethyl)-4-hydroxy-2H-Pyran-2-one]
[1]
  retroviral replication: found to inhibit retroviral replication
[2]
  activity in testosterone 5α-reductase inhibitor assay: had activity
[3]
  IC50: 1.3 µM
[3]; HIV-1 Dose 1.000 uM, read-out: HIV-1 Protease % Inhib
  inhibition at 1 µM: 79.5%
[3]; HIV-1 Dose 10.000 uM, read-out: HIV-1 Protease % Inhib
  inhibition at 10 µM: 92%
[3]; HIV-1 Dose 100.000 uM, read-out: HIV-1 Protease % Inhib
  inhibition at 100 µM: 72%
[4]; high dose versus control
  light microscopic examination of testes, adrenals and pituitaries: did not show drug-related changes
[4]; [5]
  Absolute Weight (mean prostate weight): 8.87 GMs
  Relative Weight* (mean prostate weight): 0.088 % body weight
[4]; [6]
  Absolute Weight (mean prostate weight): 7.55 GMs
  Relative Weight* (mean prostate weight): 0.074 % body weight
[4]; [7]
  Absolute Weight (mean prostate weight): 4.58 GMs
  Relative Weight* (mean prostate weight): 0.046 % body weight
[4]; [8]
  Absolute Weight (mean prostate weight): 4.43 GMs
  Relative Weight* (mean prostate weight): 0.044 % body weight
[4]; male dogs, oral 50 to 400 mg/kg/day, 28 days
  prostate size and weight: dose-related decrease in prostate size and weight; also recorded: dose related decrease in prostate size and weight
[4]; [9]
  dogs with marked decreases of prostate weight: 1/4
  high dose dogs with lower absolute and relative prostate weights than controls: 2/4
[4]; [10]
  Absolute Weight (mean prostate weight): 5.65 GMs
  Relative Weight* (mean prostate weight): 0.055 % body weight
